The results in this text go back to patent US11638424B2, “Mosquito attractant formulations and uses thereof” (priority 2017, dated 2023).

Assay [1] concerns A. gambiae s.l. The experiment in a line: Olfactometer bioassay (larger Y-tube olfactometer / wind tunnel assay). The class given is in vivo. Conditions: larger Y-tube olfactometer, FIG. 2A.
Description: Behavioural experiments were performed using different odour sources with and without pulsed CO2 stimuli in a Plexiglas Y shaped olfactometer (9.5 cm i.d.×length of the central cylinder and two arms: 120/120/120 cm respectively), illuminated from above at 280 lx. A charcoal-filtered and humidified air stream (25±2° C., RH 65±2%) passed through stainless steel mesh screens at 30 cm s^−1 to generate a laminar flow in the olfactometer. Odors were introduced into the air stream of each arm at the downwind end. […] Odor sources consisted of either RBC-based treatments or headspace extracts. RBC-based treatments included RBCs alone, hRBCs, giRBCs or ippRBCs (RBCs supplemented with HMBPP, gametocytes or IPP), as well as RBCs with supernatants from gametocyte-infected RBCs, or RBCs supplemented with the synthetic odour blend. Headspace extracts collected from hRBCs and giRBCs were used. Treatments including RBCs were heated to 37° C. prior to being pumped (150 ml min^−1) into the airstream of each arm separately. The blend and headspace extracts were delivered to each arm via a wick dispenser. Carbon dioxide (Strandmöllen) was introduced into a plume generator that was placed behind the metal screens to create a homogenous-pulsed flow, which was regulated by a stimulus controller (SEC-2/b, Syntech, Löptin Germany). […]
In assay [2] the test system is RBCs. Description: CO2 production of RBCs (GC-MS and quantitative respirometry, IRGA). Conditions: 10 μM HMBPP, FIG. 2B. In kind it is cell-based, Human. Here is the method: RBCs (1 ml) were transferred to 4 ml glass vials closed with auto-sampler screw caps, and equilibrated in a thermostat at 38° C. for 15 min. Then, 2.5 μl of HMBPP or Nanopure water were added to the RBCs samples (final concentration: 10 μM HMBPP per sample). Volatiles were collected from the headspace using solid phase micro-extraction (SPME; Supelco, Bellmonte, Pa., USA) (M. J. Yang, el al., J. Chem. Educ., 74, 1130-1132 (1997) and A. K. Borg-Karlson and R. Mozuraitis, Naturforsch., C. 51, 599-602 (1996)). […] Electron ionisation mass spectra were determined at 70 eV with the ion source kept at 230° C. and mass spectra were obtained at mass to charge ratio (m/z) 29-400. […] A similar protocol was used for the quantification of CO2, with the mass spectral data and GC retention times being compared with emission from frozen CO2. The relative amounts of CO2 in arbitrary units were determined from the areas of the respective chromatogram peaks using single ion display mode at m/z 44±0.5 Da. The amounts of identified compounds were quantified by the use of extracted ion chromatograms, since they are very minute. […] The estimations were based on the very same quantifications given in ‘arbitrary area units’. […]

Assay [3] has as its system A. gambiae sensu lato. The experiment in a line: Persistency (landing, probing and initiating feeding) within 5 min on cell-free meals. In kind it is in vivo. Here is the method:
Fifty mosquitoes were isolated in three separate cages (8 cm internal diameter×10 cm in height) covered with netting, and fed on 1 ml of control RBCs, hRBCs or giRBCs, respectively. […] For each group, the number of fully fed mosquitoes compared to unfed controls was immediately recorded. In another set of feeding experiments, serum or a 0.9% physiological saline solution (NaCl, pH 7.4), either with or without 10 μM HMBPP, were offered to mosquitoes during a 5 min feeding window, and the number of fed mosquitoes recorded every minute for each cage separately. In the saline experiment, an additional treatment of 10 μM IPP in NaCl was included.

Structures are written as SMILES.

Regarding `C/C(=C\COP(=O)(O)OP(=O)(O)O)CO` [HMBPP, (E)-4-hydroxy-3-methyl-but-2-enyl pyrophosphate], the “attraction of mosquitoes to supplemented RBCs versus RBCs” value in assay [1] is “could mimic the attraction of mosquitoes to giRBCs”. Further, the “increase of the amount of CO2 released into the gas headspace above hRBC suspensions compared to RBCs alone” value in assay [2] was 16%. In addition, the “persistency / phagostimulatory effect in physiological salt solution” value in assay [3] (0.9% NaCl, 10 μM, 5 min, FIG. 1F) is given as “generated a similar effect”. The “percent persistency within 5 min (females that landed and initiated probing and feeding)” value in assay [3] (serum with 10 μM HMBPP (serum alone 20%), FIG. 1E) is given as “Approximately 80%”.
